Test results taken from PubChem BioAssay (NCI).
Values joined by “and” are separate entries in the source; they are usually repeats but may differ in a detail not shown here. Equal entries are not always repeated.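 Interpolation was linear, between the two tested concentrations surrounding the appropriate level; five concentrations were tested over 48 hours in 96-well plates. GI50 = concentration required for 50% inhibition of growth. At the TGI there is no net growth.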

How the values were obtained:
Assay in all cases: DTP human tumour cell line panel, 48 h
786-0 renal = system: 786-0 renal
OVCAR-4 ovarian = system: OVCAR-4 ovarian
HOP-92 NSCLC = system: HOP-92 NSCLC
RPMI-8226 leukemia = system: RPMI-8226 leukemia
U251 CNS = system: U251 CNS
SK-MEL-5 melanoma = system: SK-MEL-5 melanoma
SF-268 CNS = system: SF-268 CNS
A549 NSCLC = system: A549 NSCLC
SR leukemia = system: SR leukemia
SNB-75 CNS = system: SNB-75 CNS
DU-145 prostate = system: DU-145 prostate
UACC-257 melanoma = system: UACC-257 melanoma
OVCAR-8 ovarian = system: OVCAR-8 ovarian
HT29 colon = system: HT29 colon
RXF 393 renal = system: RXF 393 renal
BT-549 breast = system: BT-549 breast

SMILES	TGI (786-0 renal) [µM]	TGI (OVCAR-4 ovarian) [µM]	TGI (HOP-92 NSCLC) [µM]	TGI (RPMI-8226 leukemia) [µM]	TGI (U251 CNS) [µM]	TGI (SK-MEL-5 melanoma) [µM]	TGI (SF-268 CNS) [µM]	TGI (A549 NSCLC) [µM]	TGI (SR leukemia) [µM]	TGI (SNB-75 CNS)	TGI (DU-145 prostate) [µM]	TGI (UACC-257 melanoma) [µM]	TGI (OVCAR-8 ovarian) [µM]	TGI (HT29 colon) [µM]	TGI (RXF 393 renal) [µM]	TGI (BT-549 breast) [µM]	GI50 (HOP-92 NSCLC) [µM]	GI50 (SK-MEL-5 melanoma) [µM]	GI50 (RXF 393 renal) [µM]	GI50 (U251 CNS)
CC(=O)NC(CCCOC(C)=O)C(=O)NC(CCCOC(C)=O)C(=O)NC(CCCOC(C)=O)C(=O)NC(Cc1ccc([N+](=O)[O-])cc1)C(=O)NCC(=O)OCc1ccccc1 (stereo not drawn)	> 100	> 100	> 100	> 100	> 100	> 100	> 100	> 100	> 100	> 100 µM	> 100	> 100	> 100	> 100	> 100	–	–	–	–	–
O=C1NCC2(CCNCC2)N1	> 100	> 100	> 100	> 100	> 100	> 100	> 100	> 100	> 100	> 100 µM	> 100	> 100	> 100	> 100	> 100	–	–	–	–	–
C=CCOCn1ccc(NC(=O)c2ccccc2)nc1=O	> 100	–	–	> 100	–	> 100	> 100	> 100	> 100	> 100 µM	> 100	> 100	> 100	> 100	–	> 100	–	–	–	–
CC(=O)O[C@]12CCCCC1C1(O)C(O)CCCC[C@H]12 (stereo partly drawn)	> 100	> 100	–	> 100	> 100	> 100	> 100	> 100	> 100	> 100 µM	–	> 100	> 100	> 100	> 100	–	–	–	–	–
C=CCN1C[C@@H](C)N([C@@H](c2ccccc2)c2ccc(C(=O)N(CC)CC)cc2)C[C@@H]1C	> 100	> 100	89	> 100	> 100	> 100	> 100	> 100	> 100	–	> 100	–	> 100	> 100	–	> 100	–	–	–	–
COc1ccc(/C(Cl)=C(\CNc2ccccn2)c2ccccc2)cc1OC	> 100	> 100	> 100	> 100	> 100	> 100	> 100	> 100	> 100	> 100 µM	> 100	> 100	> 100	> 100	> 100	–	–	–	–	–
OCCN1CCN(c2nc(Nc3ccc(-c4nc5ccccc5[nH]4)cc3)c3cn[nH]c3n2)CC1	–	–	2.91	–	–	3.15	–	–	–	–	–	–	–	–	2.85	–	1.41	1.75	1.43	–
O=C(O)c1nc2cc(C(F)(F)F)ccc2[nH]c1=O	> 100	> 100	> 100	> 100	> 100	> 100	> 100	> 100	> 100	–	> 100	> 100	> 100	> 100	–	> 100	–	–	–	–
CC1=C(c2ccc(C)cc2)NC(=S)C(C)C(c2ccc(C)cc2)=N1 (stereo not drawn)	> 100	> 100	–	> 100	> 100	> 100	> 100	> 100	–	> 100 µM	> 100	> 100	> 100	> 100	70.9	> 100	–	–	–	–
CCCCCCCSCC1OC(n2cnc3c(N)ncnc32)C(O)C1O (stereo not drawn)	–	93	58	69	> 100	30.8	> 100	> 100	43.4	> 100 µM	–	56.9	54.1	4.51	> 100	–	–	–	–	–
CC(=O)[C@]1(C)[C@H](C)O[C@](C)(CO)[C@H]1O[Si](C)(C)c1ccccc1	> 100	> 100	> 100	> 100	> 100	> 100	> 100	> 100	> 100	> 100 µM	> 100	> 100	> 100	> 100	46	–	–	–	–	–
CN(C)C(=O)C(F)(F)C(c1ccc(C(F)(F)F)cc1)C1C(=O)N(C)C(=O)N(C)C1=O (stereo not drawn)	> 100	> 100	> 100	> 100	> 100	> 100	> 100	> 100	–	> 100 µM	> 100	> 100	–	–	> 100	> 100	–	–	–	–
Nc1ccn(CC(CO)CC(c2ccccc2)P(=O)(O)O)c(=O)n1 (stereo not drawn)	> 100	–	> 100	> 100	> 100	> 100	> 100	> 100	> 100	28.4 µM and > 100 µM	–	> 100	> 100	> 100	> 100	–	–	–	–	28.2 µM and > 100 µM
CCOC(=O)NC(C(C(=O)OCC)C(=O)OCC)(C(F)(F)F)C(F)(F)F	> 100	> 100	> 100	> 100	> 100	> 100	> 100	> 100	> 100	> 100 µM	> 100	> 100	> 100	> 100	> 100	–	–	–	–	–
COC(=O)C1CCC[C@H]2C(CO)=C(C)C(=O)[C@@H]12 (stereo partly drawn)	> 100	> 100	> 100	> 100	> 100	> 100	> 100	> 100	> 100	> 100 µM	–	> 100	> 100	> 100	> 100	–	–	–	–	–
CCCC(=O)[O-].CCCC(=O)[O-].N.N.N.N.[Co+3].[O-][Cl+3]([O-])([O-])[O-]	> 100	> 100	> 100	> 100	> 100	> 100	> 100	> 100	–	> 100 µM	–	> 100	> 100	> 100	–	–	–	–	–	–
